{"source": "the kinase profiling compilation of Christmann-Franck et al. (2016)", "experiment_in_all_cases": "radiometric filter-binding kinase assay, Kinase HotSpot", "conditions_in_all_cases": "compound 0.5 µM; ATP 10 µM", "key": {"ADRBK2 (human)": {"target": "ADRBK2 (human) (UniProt P35626)"}, "AKT3 (human)": {"target": "AKT3 (human) (UniProt Q9Y243)"}, "ALK (human)": {"target": "ALK (human) (UniProt Q9UM73)"}, "CAMK1D (human)": {"target": "CAMK1D (human) (UniProt Q8IU85)"}, "CDC42BPB (human)": {"target": "CDC42BPB (human) (UniProt Q9Y5S2)"}, "CDK5 CDK5R1 p35 (human)": {"target": "CDK5 CDK5R1 p35 (human) (UniProt Q00535+Q15078)"}, "CDK9 CCNT1 (human)": {"target": "CDK9 CCNT1 (human) (UniProt P50750+O60563)", "sequence (O60563 whole entry, looked up)": "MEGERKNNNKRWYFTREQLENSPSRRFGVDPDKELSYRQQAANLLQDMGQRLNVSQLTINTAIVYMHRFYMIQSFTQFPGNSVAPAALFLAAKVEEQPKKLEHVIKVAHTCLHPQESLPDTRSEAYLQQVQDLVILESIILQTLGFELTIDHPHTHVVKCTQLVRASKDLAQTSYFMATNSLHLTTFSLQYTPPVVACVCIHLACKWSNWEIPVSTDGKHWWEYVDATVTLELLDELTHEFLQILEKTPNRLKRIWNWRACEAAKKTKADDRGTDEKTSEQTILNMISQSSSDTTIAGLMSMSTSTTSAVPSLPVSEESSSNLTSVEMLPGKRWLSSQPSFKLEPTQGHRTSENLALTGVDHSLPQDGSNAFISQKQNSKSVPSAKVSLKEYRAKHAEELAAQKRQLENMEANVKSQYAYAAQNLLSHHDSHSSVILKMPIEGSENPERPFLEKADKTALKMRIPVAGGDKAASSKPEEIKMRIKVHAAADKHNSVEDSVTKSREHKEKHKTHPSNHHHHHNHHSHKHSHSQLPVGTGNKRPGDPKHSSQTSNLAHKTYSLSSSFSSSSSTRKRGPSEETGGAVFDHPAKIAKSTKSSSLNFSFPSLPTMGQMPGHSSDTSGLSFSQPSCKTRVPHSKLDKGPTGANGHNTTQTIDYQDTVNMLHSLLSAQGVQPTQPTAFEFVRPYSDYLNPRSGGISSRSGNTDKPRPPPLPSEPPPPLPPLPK", "sequence (P50750 whole entry, looked up)": "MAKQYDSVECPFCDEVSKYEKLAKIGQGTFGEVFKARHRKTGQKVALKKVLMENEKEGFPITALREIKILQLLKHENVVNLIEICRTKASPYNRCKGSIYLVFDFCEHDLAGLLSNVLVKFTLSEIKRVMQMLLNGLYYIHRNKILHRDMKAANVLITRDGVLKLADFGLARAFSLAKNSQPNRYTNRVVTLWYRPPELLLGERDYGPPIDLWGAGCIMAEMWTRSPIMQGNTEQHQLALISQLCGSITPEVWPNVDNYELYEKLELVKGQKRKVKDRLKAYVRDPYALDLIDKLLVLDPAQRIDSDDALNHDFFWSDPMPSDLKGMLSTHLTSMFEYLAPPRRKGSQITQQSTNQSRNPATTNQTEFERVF"}, "CHUK (human)": {"target": "CHUK (human) (UniProt O15111)"}, "CLK3 (human)": {"target": "CLK3 (human) (UniProt P49761)"}, "CSNK1E (human)": {"target": "CSNK1E (human) (UniProt P49674)"}, "CSNK2A2 (human)": {"target": "CSNK2A2 (human) (UniProt P19784)"}, "EPHA2 (human)": {"target": "EPHA2 (human) (UniProt P29317)"}, "EPHA5 (human)": {"target": "EPHA5 (human) (UniProt P54756)"}, "ERBB4 (human)": {"target": "ERBB4 (human) (UniProt Q15303)"}, "FGFR4 (human)": {"target": "FGFR4 (human) (UniProt P22455)", "sequence (P22455 whole entry, looked up)": "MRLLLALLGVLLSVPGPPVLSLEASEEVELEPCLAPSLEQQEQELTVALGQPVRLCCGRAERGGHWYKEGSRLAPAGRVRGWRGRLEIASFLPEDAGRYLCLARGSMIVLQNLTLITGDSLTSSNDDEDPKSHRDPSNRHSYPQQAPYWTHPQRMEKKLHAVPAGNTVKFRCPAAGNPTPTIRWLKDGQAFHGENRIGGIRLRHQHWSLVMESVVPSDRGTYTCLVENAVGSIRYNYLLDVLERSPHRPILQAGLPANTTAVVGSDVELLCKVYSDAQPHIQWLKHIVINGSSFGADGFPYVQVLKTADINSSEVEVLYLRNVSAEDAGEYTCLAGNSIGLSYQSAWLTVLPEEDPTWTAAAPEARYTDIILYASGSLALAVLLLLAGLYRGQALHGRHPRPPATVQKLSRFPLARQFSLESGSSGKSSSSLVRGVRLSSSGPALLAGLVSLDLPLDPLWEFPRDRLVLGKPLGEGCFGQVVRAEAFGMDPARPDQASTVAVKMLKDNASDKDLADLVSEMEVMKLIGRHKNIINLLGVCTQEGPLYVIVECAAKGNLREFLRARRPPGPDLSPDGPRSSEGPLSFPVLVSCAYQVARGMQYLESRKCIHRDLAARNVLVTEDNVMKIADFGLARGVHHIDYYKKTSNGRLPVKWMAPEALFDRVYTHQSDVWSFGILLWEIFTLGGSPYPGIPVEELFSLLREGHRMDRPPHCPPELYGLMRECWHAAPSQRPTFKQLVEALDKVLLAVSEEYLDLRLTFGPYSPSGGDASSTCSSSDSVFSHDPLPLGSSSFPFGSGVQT"}, "GRK4 (human)": {"target": "GRK4 (human) (UniProt P32298)"}, "HIPK3 (human)": {"target": "HIPK3 (human) (UniProt Q9H422)"}, "IKBKB (human)": {"target": "IKBKB (human) (UniProt O14920)"}, "MAP3K11 (human)": {"target": "MAP3K11 (human) (UniProt Q16584)", "sequence (Q16584 whole entry, looked up)": "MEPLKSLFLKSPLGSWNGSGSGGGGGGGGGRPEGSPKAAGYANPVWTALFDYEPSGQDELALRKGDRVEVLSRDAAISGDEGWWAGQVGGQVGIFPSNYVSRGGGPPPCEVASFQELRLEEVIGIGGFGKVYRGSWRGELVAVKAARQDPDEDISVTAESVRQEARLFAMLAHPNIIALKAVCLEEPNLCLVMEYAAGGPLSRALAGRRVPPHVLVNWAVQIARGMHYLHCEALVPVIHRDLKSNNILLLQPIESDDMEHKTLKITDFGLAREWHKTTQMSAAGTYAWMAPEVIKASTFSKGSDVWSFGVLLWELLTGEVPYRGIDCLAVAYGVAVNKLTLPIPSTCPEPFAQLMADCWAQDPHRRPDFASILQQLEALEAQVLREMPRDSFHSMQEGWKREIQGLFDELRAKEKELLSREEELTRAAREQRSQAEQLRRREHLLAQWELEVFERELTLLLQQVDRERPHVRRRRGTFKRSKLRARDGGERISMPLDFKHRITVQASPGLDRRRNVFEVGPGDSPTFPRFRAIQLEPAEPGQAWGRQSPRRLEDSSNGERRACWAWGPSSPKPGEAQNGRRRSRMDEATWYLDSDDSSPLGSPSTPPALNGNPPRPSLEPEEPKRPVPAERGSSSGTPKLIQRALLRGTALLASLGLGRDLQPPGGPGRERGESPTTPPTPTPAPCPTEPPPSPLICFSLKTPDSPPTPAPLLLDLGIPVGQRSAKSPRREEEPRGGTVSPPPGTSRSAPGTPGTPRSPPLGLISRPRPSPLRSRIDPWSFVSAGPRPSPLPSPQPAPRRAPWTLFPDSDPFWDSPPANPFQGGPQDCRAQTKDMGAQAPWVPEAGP"}, "MAPK1 (human)": {"target": "MAPK1 (human) (UniProt P28482)", "sequence (P28482 whole entry, looked up)": "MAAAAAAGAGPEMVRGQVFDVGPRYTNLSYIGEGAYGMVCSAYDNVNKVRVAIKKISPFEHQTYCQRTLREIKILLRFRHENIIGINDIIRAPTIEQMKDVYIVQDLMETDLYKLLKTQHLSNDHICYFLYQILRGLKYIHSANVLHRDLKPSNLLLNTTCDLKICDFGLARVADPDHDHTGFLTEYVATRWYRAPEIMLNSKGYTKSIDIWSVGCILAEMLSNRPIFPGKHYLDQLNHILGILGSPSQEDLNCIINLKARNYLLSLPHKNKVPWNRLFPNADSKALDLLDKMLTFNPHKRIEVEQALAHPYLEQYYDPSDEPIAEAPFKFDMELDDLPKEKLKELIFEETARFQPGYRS"}, "MAPK12 (human)": {"target": "MAPK12 (human) (UniProt P53778)"}, "MAPK13 (human)": {"target": "MAPK13 (human) (UniProt O15264)"}, "MAPK3 (human)": {"target": "MAPK3 (human) (UniProt P27361)"}, "MARK4 (human)": {"target": "MARK4 (human) (UniProt Q96L34)"}, "NLK (human)": {"target": "NLK (human) (UniProt Q9UBE8)"}, "NTRK1 (human)": {"target": "NTRK1 (human) (UniProt P04629)"}, "NTRK2 (human)": {"target": "NTRK2 (human) (UniProt Q16620)"}, "NTRK3 (human)": {"target": "NTRK3 (human) (UniProt Q16288)"}, "PAK3 (human)": {"target": "PAK3 (human) (UniProt O75914)"}, "PKN2 (human)": {"target": "PKN2 (human) (UniProt Q16513)"}, "PRKACA (human)": {"target": "PRKACA (human) (UniProt P17612)"}, "PRKCE (human)": {"target": "PRKCE (human) (UniProt Q02156)", "sequence (Q02156 whole entry, looked up)": "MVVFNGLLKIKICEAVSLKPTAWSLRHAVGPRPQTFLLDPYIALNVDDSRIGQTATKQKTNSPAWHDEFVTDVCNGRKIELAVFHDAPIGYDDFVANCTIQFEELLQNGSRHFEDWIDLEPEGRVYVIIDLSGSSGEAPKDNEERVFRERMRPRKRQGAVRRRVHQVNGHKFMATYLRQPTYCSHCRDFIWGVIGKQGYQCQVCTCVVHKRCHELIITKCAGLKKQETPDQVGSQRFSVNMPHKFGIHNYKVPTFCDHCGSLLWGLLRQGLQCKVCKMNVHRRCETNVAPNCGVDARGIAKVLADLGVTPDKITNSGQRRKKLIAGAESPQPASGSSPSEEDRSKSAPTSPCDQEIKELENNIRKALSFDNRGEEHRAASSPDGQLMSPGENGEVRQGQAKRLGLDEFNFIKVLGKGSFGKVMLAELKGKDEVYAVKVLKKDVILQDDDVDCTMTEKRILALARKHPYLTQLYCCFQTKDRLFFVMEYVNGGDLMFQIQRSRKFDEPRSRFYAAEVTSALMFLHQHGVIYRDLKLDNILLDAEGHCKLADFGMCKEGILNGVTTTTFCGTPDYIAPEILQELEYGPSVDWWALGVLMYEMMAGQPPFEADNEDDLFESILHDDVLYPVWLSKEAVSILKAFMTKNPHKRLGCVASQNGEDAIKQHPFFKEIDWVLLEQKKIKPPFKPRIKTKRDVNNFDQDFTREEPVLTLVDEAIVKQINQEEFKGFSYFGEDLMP"}, "PRKCG (human)": {"target": "PRKCG (human) (UniProt P05129)"}, "PRKG1 (human)": {"target": "PRKG1 (human) (UniProt Q13976)", "sequence (Q13976 whole entry, looked up)": "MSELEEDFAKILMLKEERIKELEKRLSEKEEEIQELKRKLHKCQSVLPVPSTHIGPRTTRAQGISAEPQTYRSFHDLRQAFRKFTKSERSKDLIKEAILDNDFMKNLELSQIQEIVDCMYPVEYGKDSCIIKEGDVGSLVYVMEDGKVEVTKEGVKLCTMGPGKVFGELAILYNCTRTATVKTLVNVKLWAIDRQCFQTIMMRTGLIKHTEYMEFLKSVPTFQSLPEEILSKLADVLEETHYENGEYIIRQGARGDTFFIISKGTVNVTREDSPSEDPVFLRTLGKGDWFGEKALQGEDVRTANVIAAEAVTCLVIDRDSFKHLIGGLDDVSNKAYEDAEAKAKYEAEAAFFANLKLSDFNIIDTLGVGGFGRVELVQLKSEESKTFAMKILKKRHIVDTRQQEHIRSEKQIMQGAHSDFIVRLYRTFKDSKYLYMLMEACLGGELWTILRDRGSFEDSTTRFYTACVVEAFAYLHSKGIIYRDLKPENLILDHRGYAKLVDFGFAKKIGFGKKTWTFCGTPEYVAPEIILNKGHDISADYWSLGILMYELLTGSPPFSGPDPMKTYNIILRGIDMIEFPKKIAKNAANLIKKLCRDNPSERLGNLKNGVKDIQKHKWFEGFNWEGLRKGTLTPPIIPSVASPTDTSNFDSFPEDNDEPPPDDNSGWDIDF"}, "PRKG2 (human)": {"target": "PRKG2 (human) (UniProt Q13237)"}, "RAF1 (human)": {"target": "RAF1 (human) (UniProt P04049)"}, "ROCK2 (human)": {"target": "ROCK2 (human) (UniProt O75116)"}, "STK11 (human)": {"target": "STK11 (human) (UniProt Q15831)"}, "TGFBR2 (human)": {"target": "TGFBR2 (human) (UniProt P37173)"}, "TSSK1B (human)": {"target": "TSSK1B (human) (UniProt Q9BXA7)", "sequence (Q9BXA7 whole entry, looked up)": "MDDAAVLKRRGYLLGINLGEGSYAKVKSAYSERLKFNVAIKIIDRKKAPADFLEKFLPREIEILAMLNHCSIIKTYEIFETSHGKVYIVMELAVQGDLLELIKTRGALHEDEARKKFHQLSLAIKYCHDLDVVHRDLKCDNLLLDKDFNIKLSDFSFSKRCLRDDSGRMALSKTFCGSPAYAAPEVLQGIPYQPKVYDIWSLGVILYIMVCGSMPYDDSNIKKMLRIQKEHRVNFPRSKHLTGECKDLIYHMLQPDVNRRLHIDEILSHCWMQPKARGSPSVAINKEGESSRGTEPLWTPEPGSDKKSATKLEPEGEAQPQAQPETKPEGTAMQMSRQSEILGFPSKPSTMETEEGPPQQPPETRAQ"}, "ULK1 (human)": {"target": "ULK1 (human) (UniProt O75385)"}, "WNK3 (human)": {"target": "WNK3 (human) (UniProt Q9BYP7)"}}, "note": "Values joined by “and” are separate entries in the source; they are usually repeats but may differ in a detail not shown here. Identical values can stand only once."}
{"smiles": "CC(=O)c1ccc(N2CCOCC2)cc1O", "values": [{"measurement": "residual activity", "setting": "ADRBK2 (human)", "result": 89.1, "unit": "%"}, {"measurement": "residual activity", "setting": "AKT3 (human)", "result": 107, "unit": "%"}, {"measurement": "residual activity", "setting": "ALK (human)", "result": 106, "unit": "%"}, {"measurement": "residual activity", "setting": "CAMK1D (human)", "result": 96.9, "unit": "%"}, {"measurement": "residual activity", "setting": "CDC42BPB (human)", "result": 87.2, "unit": "%"}, {"measurement": "residual activity", "setting": "CDK5 CDK5R1 p35 (human)", "result": 97.1, "unit": "%"}, {"measurement": "residual activity", "setting": "CDK9 CCNT1 (human)", "result": 100, "unit": "%"}, {"measurement": "residual activity", "setting": "CHUK (human)", "result": 96.2, "unit": "%"}, {"measurement": "residual activity", "setting": "CLK3 (human)", "result": 101, "unit": "%"}, {"measurement": "residual activity", "setting": "CSNK1E (human)", "result": 96.2, "unit": "%"}, {"measurement": "residual activity", "setting": "CSNK2A2 (human)", "result": 98.8, "unit": "%"}, {"measurement": "residual activity", "setting": "EPHA2 (human)", "result": 107, "unit": "%"}, {"measurement": "residual activity", "setting": "EPHA5 (human)", "result": 109, "unit": "%"}, {"measurement": "residual activity", "setting": "ERBB4 (human)", "result": 107, "unit": "%"}, {"measurement": "residual activity", "setting": "FGFR4 (human)", "result": 108, "unit": "%"}, {"measurement": "residual activity", "setting": "GRK4 (human)", "result": 106, "unit": "%"}, {"measurement": "residual activity", "setting": "HIPK3 (human)", "result": 101, "unit": "%"}, {"measurement": "residual activity", "setting": "IKBKB (human)", "result": 103, "unit": "%"}, {"measurement": "residual activity", "setting": "MAP3K11 (human)", "result": 94.8, "unit": "%"}, {"measurement": "residual activity", "setting": "MAPK1 (human)", "result": 97.6, "unit": "%"}, {"measurement": "residual activity", "setting": "MAPK12 (human)", "result": 78.7, "unit": "%"}, {"measurement": "residual activity", "setting": "MAPK13 (human)", "result": 104, "unit": "%"}, {"measurement": "residual activity", "setting": "MAPK3 (human)", "result": 103, "unit": "%"}, {"measurement": "residual activity", "setting": "MARK4 (human)", "result": 99.4, "unit": "%"}, {"measurement": "residual activity", "setting": "NLK (human)", "result": 95.6, "unit": "%"}, {"measurement": "residual activity", "setting": "NTRK1 (human)", "result": 97.2, "unit": "%"}, {"measurement": "residual activity", "setting": "NTRK2 (human)", "result": 92.1, "unit": "%"}, {"measurement": "residual activity", "setting": "NTRK3 (human)", "result": 101, "unit": "%"}, {"measurement": "residual activity", "setting": "PAK3 (human)", "result": 93.9, "unit": "%"}, {"measurement": "residual activity", "setting": "PKN2 (human)", "result": 94.8, "unit": "%"}, {"measurement": "residual activity", "setting": "PRKACA (human)", "result": 102, "unit": "%"}, {"measurement": "residual activity", "setting": "PRKCE (human)", "result": 93.4, "unit": "%"}, {"measurement": "residual activity", "setting": "PRKCG (human)", "result": 98.7, "unit": "%"}, {"measurement": "residual activity", "setting": "PRKG1 (human)", "result": "100% and 84.1%"}, {"measurement": "residual activity", "setting": "PRKG2 (human)", "result": 107, "unit": "%"}, {"measurement": "residual activity", "setting": "RAF1 (human)", "result": 96.2, "unit": "%"}, {"measurement": "residual activity", "setting": "ROCK2 (human)", "result": 94.7, "unit": "%"}, {"measurement": "residual activity", "setting": "STK11 (human)", "result": 103, "unit": "%"}, {"measurement": "residual activity", "setting": "TGFBR2 (human)", "result": 132, "unit": "%"}, {"measurement": "residual activity", "setting": "TSSK1B (human)", "result": 107, "unit": "%"}, {"measurement": "residual activity", "setting": "ULK1 (human)", "result": 94.8, "unit": "%"}]}
{"smiles": "CNC(=O)c1cc(Oc2ccc(NC(=O)Nc3ccc(Cl)c(C(F)(F)F)c3)cc2)ccn1", "values": [{"measurement": "residual activity", "setting": "ADRBK2 (human)", "result": 98.4, "unit": "%"}, {"measurement": "residual activity", "setting": "AKT3 (human)", "result": 94.2, "unit": "%"}, {"measurement": "residual activity", "setting": "ALK (human)", "result": 97.3, "unit": "%"}, {"measurement": "residual activity", "setting": "CAMK1D (human)", "result": 103, "unit": "%"}, {"measurement": "residual activity", "setting": "CDC42BPB (human)", "result": 102, "unit": "%"}, {"measurement": "residual activity", "setting": "CDK5 CDK5R1 p35 (human)", "result": 99.9, "unit": "%"}, {"measurement": "residual activity", "setting": "CDK9 CCNT1 (human)", "result": 98.3, "unit": "%"}, {"measurement": "residual activity", "setting": "CHUK (human)", "result": 99.8, "unit": "%"}, {"measurement": "residual activity", "setting": "CLK3 (human)", "result": 99.3, "unit": "%"}, {"measurement": "residual activity", "setting": "CSNK1E (human)", "result": 95.9, "unit": "%"}, {"measurement": "residual activity", "setting": "CSNK2A2 (human)", "result": 94.4, "unit": "%"}, {"measurement": "residual activity", "setting": "EPHA2 (human)", "result": 83.8, "unit": "%"}, {"measurement": "residual activity", "setting": "EPHA5 (human)", "result": 99.4, "unit": "%"}, {"measurement": "residual activity", "setting": "ERBB4 (human)", "result": 94.8, "unit": "%"}, {"measurement": "residual activity", "setting": "FGFR4 (human)", "result": 104, "unit": "%"}, {"measurement": "residual activity", "setting": "GRK4 (human)", "result": 103, "unit": "%"}, {"measurement": "residual activity", "setting": "HIPK3 (human)", "result": 85.7, "unit": "%"}, {"measurement": "residual activity", "setting": "IKBKB (human)", "result": 88.3, "unit": "%"}, {"measurement": "residual activity", "setting": "MAP3K11 (human)", "result": 98.3, "unit": "%"}, {"measurement": "residual activity", "setting": "MAPK1 (human)", "result": 101, "unit": "%"}, {"measurement": "residual activity", "setting": "MAPK12 (human)", "result": 94.2, "unit": "%"}, {"measurement": "residual activity", "setting": "MAPK13 (human)", "result": 97.5, "unit": "%"}, {"measurement": "residual activity", "setting": "MAPK3 (human)", "result": 105, "unit": "%"}, {"measurement": "residual activity", "setting": "MARK4 (human)", "result": 98.1, "unit": "%"}, {"measurement": "residual activity", "setting": "NLK (human)", "result": 99.1, "unit": "%"}, {"measurement": "residual activity", "setting": "NTRK1 (human)", "result": 76.1, "unit": "%"}, {"measurement": "residual activity", "setting": "NTRK2 (human)", "result": 90, "unit": "%"}, {"measurement": "residual activity", "setting": "PAK3 (human)", "result": 103, "unit": "%"}, {"measurement": "residual activity", "setting": "PKN2 (human)", "result": 94.2, "unit": "%"}, {"measurement": "residual activity", "setting": "PRKACA (human)", "result": 92.6, "unit": "%"}, {"measurement": "residual activity", "setting": "PRKCE (human)", "result": 96.4, "unit": "%"}, {"measurement": "residual activity", "setting": "PRKCG (human)", "result": 94.7, "unit": "%"}, {"measurement": "residual activity", "setting": "PRKG1 (human)", "result": "104% and 88.6%"}, {"measurement": "residual activity", "setting": "PRKG2 (human)", "result": 90.9, "unit": "%"}, {"measurement": "residual activity", "setting": "ROCK2 (human)", "result": 101, "unit": "%"}, {"measurement": "residual activity", "setting": "STK11 (human)", "result": 104, "unit": "%"}, {"measurement": "residual activity", "setting": "TGFBR2 (human)", "result": 99.9, "unit": "%"}, {"measurement": "residual activity", "setting": "TSSK1B (human)", "result": 98.7, "unit": "%"}, {"measurement": "residual activity", "setting": "ULK1 (human)", "result": 94.3, "unit": "%"}, {"measurement": "residual activity", "setting": "WNK3 (human)", "result": 99.2, "unit": "%"}]}
